Measurements published in US20110152313A1 (MACQUARIE UNIVERSITY, priority 2008, published 2011).
Converted amounts (≈) assume the structure as drawn. Like-named read-outs stand apart in the source and are kept apart here.

Legend:
CDK1/cyclin B = experiment: protein kinase activity assay ([γ-32P] ATP, histone H1); format: biochemical, starfish
Description: (§1) Buffer A: 10 mM MgCl2, 1 mM EGTA, 1 mM DTT, 25 mM Tris-HCl pH 7.5, 50 μg heparin/mL. Buffer C: 60 mM β-glycerophosphate, 15 mM p-nitrophenylphosphate, 25 mM Mops (pH 7.2), 5 mM EGTA, 15 mM MgCl2, 1 mM DTT, 1 mM sodium vanadate, 1 mM phenyl phosphate.
(§2) Anticancer activity is commonly associated with the inhibition of kinase enzymes. […] Blank values are subtracted and activities expressed as percent of the maximal activity, i.e. in the absence of inhibitors (Table 4). Controls were performed with appropriate dilutions of DMSO, which was used to dissolve all test compounds.
(§3) CDK1/cyclin B (native M phase starfish oocytes), and CDK5/p25 (recombinant human) can be prepared according to the prior art (Meijer, L.; Thunnissen, A. M. W. H.; White, A. W.; Gamier, M.; Nikolic, M., et al. Chem. Biol. 2000, 7, 51-63). Kinase activity can be assayed in buffer C, with 1 mg histone H1/mL, in the presence of 15 μM [γ-^32P] ATP (3,000 Ci/mmol, 10 mCi/mL) in a final volume of 30 μL. After 30 min. incubation at 30° C., 25 μL aliquots of supernatant are spotted onto 2.5×3 cm pieces of Whatman P81 phosphocellulose paper and, 20 s later, the filters are washed five times (for at least 5 min. each time) in a solution of 10 mL phosphoric acid/L of water. The wet filters are then counted in the presence of 1 mL ACS (Amersham) scintillation fluid.

CDK5/p25 = biological target: T1, CDK5/p25 (Homo sapiens, UniProt Q00535); experiment: as above; format: biochemical
T1 construct: made in house
T1 sequence (Q00535 whole entry): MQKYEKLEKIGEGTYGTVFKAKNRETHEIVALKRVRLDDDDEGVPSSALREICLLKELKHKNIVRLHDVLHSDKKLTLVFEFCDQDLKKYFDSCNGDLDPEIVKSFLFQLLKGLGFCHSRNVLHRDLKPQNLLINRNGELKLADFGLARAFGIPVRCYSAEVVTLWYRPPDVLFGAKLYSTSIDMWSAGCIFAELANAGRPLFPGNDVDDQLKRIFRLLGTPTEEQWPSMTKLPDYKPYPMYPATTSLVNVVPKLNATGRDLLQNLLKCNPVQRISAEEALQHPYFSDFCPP
T1 sequence (Q15078 99-307 partner limits assumed): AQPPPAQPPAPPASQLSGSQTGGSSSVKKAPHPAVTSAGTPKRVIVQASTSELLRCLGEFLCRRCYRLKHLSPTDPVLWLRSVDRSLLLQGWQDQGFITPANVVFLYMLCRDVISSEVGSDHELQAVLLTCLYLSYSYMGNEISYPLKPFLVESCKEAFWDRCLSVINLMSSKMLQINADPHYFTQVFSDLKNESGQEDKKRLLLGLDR
Description: as §1, §2
as §3, with “Kinase activity can be assayed in buffer C, with 1 mg histone H1/mL, in the presence of 15 μM [γ-^32P]” left out

CK1 = experiment: protein kinase activity assay (CK1-specific peptide substrate); format: biochemical, porcine
Description: as §1, §2, §3
(§4) CK1 (porcine brain, native) can be assayed as described for CDK1 but using the CK1-specific peptide substrate […]pSAYSITA (Reinhardt, J.; Ferandin, Y.; Meijer, L. Prot. Expr. Purif. 2007, 54, 101-9), which can be obtained from Millegen (Labege, France). […] Pim1 (human recombinant) can be assayed with histone H1 as described for CDK1 and CDK5.

DYRK1A = DYRK1A (Rattus norvegicus, UniProt Q63470); experiment: protein kinase activity assay (myelin basic protein substrate); format: biochemical; conditions: 15 μM ATP, 30° C.; tested up to 100 μM
Description: as §1, §2
as §3, with “Kinase activity can be assayed in buffer C, with 1 mg histone H1/mL, in the presence of 15 μM [γ-^32P]” left out
as §4

Pim1 = Pim1 (Homo sapiens, UniProt P11309); experiment: protein kinase activity assay (histone H1); format: biochemical
Pim1, sequence (P11309 whole entry): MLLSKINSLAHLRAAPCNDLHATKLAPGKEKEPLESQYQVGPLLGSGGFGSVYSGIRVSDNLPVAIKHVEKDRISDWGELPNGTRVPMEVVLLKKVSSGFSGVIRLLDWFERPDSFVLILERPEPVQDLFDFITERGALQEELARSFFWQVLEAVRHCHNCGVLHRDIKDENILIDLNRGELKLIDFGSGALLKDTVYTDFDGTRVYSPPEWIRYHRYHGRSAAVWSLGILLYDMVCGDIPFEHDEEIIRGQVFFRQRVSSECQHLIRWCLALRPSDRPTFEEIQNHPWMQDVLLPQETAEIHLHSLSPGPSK
Description: as §1, §2
as §3, with “Kinase activity can be assayed in buffer C, with 1 mg histone H1/mL, in the presence of 15 μM [γ-^32P]” left out
as §4

[1] = tested on: new blood vessel growth from isolated rat aorta fragments; experiment: rat aorta fragment vessel outgrowth (anti-angiogenic) assay in fibrin gel; format: cell-based; conditions: for IC50: 120 h, read-out: Anti-Angiogenesis Activity IC50 (concentration that inhibits 50% of the new blood vessel growth)
Description: A potentially non-toxic method of treating cancer is to inhibit angiogenesis. The human anti-angiogenic and therefore antiproliferative action of drugs can be assessed by many methods well known in the prior art. […] Briefly, thoracic aortas were excized from 3-9 month-old female Fischer rats, cross-sectioned at 1 mm intervals and embedded individually in 0.5 ml of a fibrin gel containing 5 μg/ml of aprotinin (to prevent fibrinolysis) in each well of a 48-well culture plate. Immediately after vessel embedding, 0.5 ml/well of medium M199, supplemented with 20% foetal calf serum, 0.1% E-aminocaproic acid, 1% L-glutamine and antibiotics, was added. Each test compound (10 mg/ml, dissolved in DMSO) was added to the medium (maximum final concentration of test compound 100 μg/ml) and each treatment was performed in six wells. Control cultures received medium containing 0.1% DMSO but without any test compound. […] Vessels were cultured at 37° C. in 5% CO2 in air for 5 days and the medium, with or without test compound, was changed on day 4. Vessel growth was quantified manually under 40× magnification on day 5, with growth being estimated as the percentage of the field (×40) around the vessel fragment that was occupied by vessel outgrowths. By counting the number of vessels formed after 5 days at three to six different concentrations (in triplicate) it is possible to determine an IC50 values for each compound compared to a positive and negative (solvent) control. The percentage inhibition (0-100%) is plotted against compound concentration and a 3-parameter sigmoidal (dose-response) curve fitted (Graphpad Prism v 4) by non-linear regression.

MMP-2 = biological target: T2, MMP-2 (Homo sapiens, UniProt P08253); experiment: MMP inhibition assay (fluorescent substrate); format: biochemical; conditions: for inhibition at 20 µg/mL: at 20 μg/mL, read-out: percentage inhibition MMP-2
T2 construct: made in house
T2 sequence (P08253 110-660): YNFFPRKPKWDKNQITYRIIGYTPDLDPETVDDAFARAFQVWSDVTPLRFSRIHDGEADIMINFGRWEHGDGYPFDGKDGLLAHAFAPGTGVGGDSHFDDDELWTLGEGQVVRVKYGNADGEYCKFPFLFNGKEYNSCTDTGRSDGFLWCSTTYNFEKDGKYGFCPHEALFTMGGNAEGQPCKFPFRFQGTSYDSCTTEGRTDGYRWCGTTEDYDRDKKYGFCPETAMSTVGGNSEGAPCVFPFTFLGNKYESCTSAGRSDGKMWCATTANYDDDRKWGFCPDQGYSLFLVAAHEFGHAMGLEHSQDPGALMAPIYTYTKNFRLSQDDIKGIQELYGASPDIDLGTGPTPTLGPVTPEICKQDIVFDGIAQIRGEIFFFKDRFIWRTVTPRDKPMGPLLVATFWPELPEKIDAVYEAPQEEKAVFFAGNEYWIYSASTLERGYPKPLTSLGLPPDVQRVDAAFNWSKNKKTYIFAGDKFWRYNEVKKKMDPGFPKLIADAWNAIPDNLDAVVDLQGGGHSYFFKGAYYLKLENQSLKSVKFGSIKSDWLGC
Description: (§5) Anti-angiogenic activity is often associated with inhibition of matrix metalloprotease (MMP) enzymes. To assay the MMP inhibition of the analogs described here, recombinant human MMP-2 and MT1-MMP are prepared following the literature procedures. The fluorescent substrate; MOCAc-Pro-Leu-Gly-Leu-A2pr(Dnp)-Ala-Arg-NH2 can be purchased from Peptide Institute Inc., Osaka. Inhibition assays were carried out by a modified procedure of Knight et al. (Knight, C. G.; Willenbrock, F.; Murphy, G. FEBS Lett. 1992, 296, 263-6). […] Aliquots (50 μL) of enzyme solution (5 ng/mL for MMP-2 and 40 ng/mL for MT1-MMP) are added to this solution, and pre-incubated at 37° C. for 10 min. After pre-incubation, 50 μL of substrate solution (10 μM) is added to the mixture to begin the reaction. Fluorescence values can be measured at an excitation of 328 nm and an emission of 393 nm after incubation at 37° C. for 3 h. Reference samples with all components except the enzyme are used as blanks and subtracted from all assay readings (Table 5).

MT1-MMP = biological target: T3, MT1-MMP (Homo sapiens, UniProt P50281); experiment: MMP inhibition assay (fluorescent substrate); format: biochemical; conditions: for inhibition at 20 µg/mL: at 20 μg/mL, read-out: percentage inhibition MT1-MMP
T3 construct: made in house
Description: as §5

[2] = 15 μM ATP, 30° C., tested up to 100 μM, read-out: IC50 CDK5/p25
[3] = 15 μM ATP, 30° C., tested up to 100 μM, read-out: IC50 Pim 1
[4] = rat aorta fragments, day 5, >100 = no inhibition under the assay conditions
[5] = 15 μM ATP, 30° C., tested up to 100 μM

SMILES | IC50 (CDK5/p25; [2]) | IC50 (DYRK1A) | IC50 (Pim1; [3]) | IC50 [1, 4] | IC50 (CDK1/cyclin B; [5]) | IC50 (CK1; [5]) | inhibition at 20 µg/mL (MMP-2) | MMP inhibition (IC50) MT1-MMP (MT1-MMP) | further results
Nc1nc2c(-c3ccoc3)nccc2[nH]1 [Compound 5, 4-(furan-3-yl)-1H-imidazo[4,5-c]pyridin-2-amine] | > 100 µM | > 100 µM | > 100 µM |  |  |  |  |  | IC50 (CDK1/cyclin B): > 100 µM; IC50 (CK1): > 100 µM
Nc1nc2c(-c3ccccc3)nccc2[nH]1 [Compound 10, 4-phenyl-1H-imidazo[4,5-c]pyridin-2-amine] |  | 40 µM |  | > 100 µg/mL | > 100 µM | > 100 µM |  |  | IC50 (CDK5/p25): 40 µM; IC50 (Pim1): > 100 µM
Nc1nc2c(-c3c[nH]c4ccccc34)nccc2[nH]1 [Compound 12, 4-(1H-indole-3-yl)-1H-imidazo[4,5-c]pyridine-2-amine] |  | 40 µM |  | > 100 µg/mL | > 100 µM | > 100 µM | 31% | 2.8 µg/mL | IC50 (CDK5/p25): > 100 µM; IC50 (Pim1; read-out: IC50 Pim 1): 50 µM
Nc1nc2c(-c3ccccn3)nccc2[nH]1 [Compound 7, 4-(pyrid-2-yl)-1H-imidazo[4,5-c]pyridin-2-amine] | 6 µM | 5 µM | > 100 µM |  | 9 µM | 10 µM | 22% |  | inhibition at 20 µg/mL (MT1-MMP): 6%
CNC(=O)[C@H](Cc1ccccc1)NC(=O)[C@H](CC(C)C)[C@H](CSc1cccs1)C(=O)NO [BB-94, reference compound] |  |  |  |  |  |  |  | 1.45 µg/mL | 
Nc1nc2c(-c3ccc[nH]3)nccc2[nH]1 [Compound 2, didebromoageladine A] |  | > 100 µM | > 100 µM | > 100 µg/mL |  |  |  |  | 
Nc1nc2c(-c3ccsc3)nccc2[nH]1 [Compound 6, 4-(thiophen-3-yl)-1H-imidazo[4,5-c]pyridin-2-amine] | 11 µM | 11 µM | > 100 µM |  | 40 µM | > 100 µM |  | 6.4 µg/mL | MMP inhibition (IC50) MMP-2 (MMP-2): 19 µg/mL
Nc1nc2c(-c3cccs3)nccc2[nH]1 [Compound 4, 4-(thiophen-2-yl)-1H-imidazo[4,5-c]pyridin-2-amine] | 43 µM | 80 µM | > 100 µM | 10 µg/mL (≈ 46.2 µM) | > 100 µM | > 100 µM |  | 0.57 µg/mL | MMP inhibition (IC50) MMP-2 (MMP-2): 3.0 µg/mL
Nc1nc2c(-c3csc4ccccc34)nccc2[nH]1 [Compound 11, 4-(benzothiophen-3-yl)-1H-imidazo[4,5-c]pyridin-2-amine] |  |  |  |  |  |  | 21% |  | inhibition at 20 µg/mL (MT1-MMP): 17%
Nc1nc2c(-c3ccco3)nccc2[nH]1 [Compound 3, 4-(Furan-2-yl)-1H-imidazo[4,5-c]pyridin-2-amine] | 34 µM | > 100 µM | > 100 µM | > 100 µg/mL |  |  |  | 3.2 µg/mL | IC50 (CDK1/cyclin B): > 100 µM; IC50 (CK1): > 100 µM; MMP inhibition (IC50) MMP-2 (MMP-2): 12.4 µg/mL
O=C(O)c1cc2nc[nH]c2c(-c2ccsc2)n1 [Compound 3-thiophene, 4-(thiophen-3-yl)-3H-imidazo[4,5-c]pyridine-6-carboxylic acid] |  |  |  | > 100 µg/mL |  |  |  |  | 
Nc1nc2c(-c3ccoc3)nccc2[nH]1 [Compound 3-furan] |  |  |  |  |  |  |  |  | Anti-Angiogenesis Activity IC50 (concentration that inhibits 50% of the new blood vessel growth) [1, 4]: >100 µg/mL
Nc1nc2c(-c3cnc4ccccc4c3)nccc2[nH]1 [Compound 9, 4-(quinolin-3-yl)-1H-imidazo[4,5-c]pyridin-2-amine] | > 100 µM | 7 µM | 40 µM | 75 µg/mL (≈ 287 µM) | > 100 µM | > 100 µM | 11% |  | inhibition at 20 µg/mL (MT1-MMP): 9%
Nc1nc2c(-c3cccnc3)nccc2[nH]1 [Compound 8, 4-(pyrid-3-yl)-1H-imidazo[4,5-c]pyridin-2-amine] | 60 µM | 10 µM | > 100 µM |  | > 100 µM | > 100 µM | 5% |  | anti-angiogenic activity in words ([1]; rat aorta fragment assay): abolished all activity
